Results reported in ChEMBL document CHEMBL4346657, “Anticancer activity, dual prooxidant/antioxidant effect and apoptosis induction profile of new bichalcophene-5-carboxamidines” (Eur J Med Chem, 2019).
The source made the active and inactive calls. No cut-off for these calls is given here.

Experiments:
OVCAR-5 = test: Antiproliferative activity against human OVCAR5 cells assessed as growth inhibition after 48 hrs by sulforhodamine B assay; format: functional; conditions: OVCAR-5, 48 h
[1] = Selectivity index, ratio of IC50 for human WI38 cells to GI50 for human NCI60 cells
[2] = Antioxidant activity assessed as DPPH radical scavenging activity incubated in dark for 30 mins by spectrophotometric method relative to control; format: functional; set-up: concentration or dose not given beside the values
SK-MEL-5 = test: Antiproliferative activity against human SK-MEL-5 cells assessed as growth inhibition after 48 hrs by sulforhodamine B assay; format: functional; conditions: SK-MEL-5, 48 h
KM12 = test: Antiproliferative activity against human KM12 cells assessed as growth inhibition after 48 hrs by sulforhodamine B assay; format: functional; conditions: KM12, 48 h
HCT-116 [3] = test: Induction of apoptosis in human HCT116 cells assessed as increase in p53 mRNA expression at 100 nM after 6 hrs hrs by SYBR green dye-based qRT-PCR analysis relative to control; format: functional
SR = test: Antiproliferative activity against human SR cells assessed as growth inhibition after 48 hrs by sulforhodamine B assay; format: functional
MOLT-4 = test: Antiproliferative activity against human MOLT4 cells assessed as growth inhibition after 48 hrs by sulforhodamine B assay; format: functional; conditions: MOLT-4, 48 h
BT-549 = test: Antiproliferative activity against human BT549 cells assessed as growth inhibition after 48 hrs by sulforhodamine B assay; format: functional; conditions: BT-549, 48 h
WI-38 = test: Cytotoxicity activity against human WI38 cells assessed as reduction in cell viability measured after 48 hrs by MTT assay; format: cell-based; conditions: WI-38, 48 h
Erythrocyte = test: Haemolytic activity in human erythrocytes assessed as induction of hemolysis at 2.5 mM after 30 mins relative to H202; format: cell-based; conditions: erythrocyte, 0.5 h, 2500 µM
MDA-MB-231 = test: Antiproliferative activity against human MDA-MB-231/ATCC cells assessed as growth inhibition after 48 hrs by sulforhodamine B assay; format: functional; conditions: MDA-MB-231, 48 h
CAKI-1 = test: Antiproliferative activity against human CAKI-1 cells assessed as growth inhibition after 48 hrs by sulforhodamine B assay; format: functional; conditions: CAKI-1, 48 h
HCC 2998 = test: Antiproliferative activity against human HCC2998 cells assessed as growth inhibition after 48 hrs by sulforhodamine B assay; format: functional; conditions: HCC 2998, 48 h
T47D = test: Antiproliferative activity against human T47D cells assessed as growth inhibition after 48 hrs by sulforhodamine B assay; format: functional
M14 = test: Antiproliferative activity against human M14 cells assessed as growth inhibition after 48 hrs by sulforhodamine B assay; format: functional; conditions: M14, 48 h
HCT-116 [4] = test: Induction of apoptosis in human HCT116 cells assessed as increase in caspase 3 mRNA expression at 100 nM after 6 hrs hrs by SYBR green dye-based qRT-PCR analysis relative to control; format: functional
SN12C = test: Antiproliferative activity against human SN12C cells assessed as growth inhibition after 48 hrs by sulforhodamine B assay; format: functional
[5] = test system: Panel NCI-60 (60 carcinoma cell lines); test: Antiproliferative activity against human NCI60 cells assessed as growth inhibition after 48 hrs by sulforhodamine B assay; format: functional
UACC-257 = test: Antiproliferative activity against human UACC257 cells assessed as growth inhibition after 48 hrs by sulforhodamine B assay; format: functional; conditions: UACC-257, 48 h
SNB-19 = test: Antiproliferative activity against human SNB19 cells assessed as growth inhibition after 48 hrs by sulforhodamine B assay; format: functional; conditions: SNB-19, 48 h
LOX IMVI = test: Antiproliferative activity against human LOXIMVI cells assessed as growth inhibition after 48 hrs by sulforhodamine B assay; format: functional
A549 = test: Antiproliferative activity against human A549/ATCC cells assessed as growth inhibition after 48 hrs by sulforhodamine B assay; format: functional; conditions: A549, 48 h
HCT-116 [6] = test: Induction of apoptosis in human HCT116 cells assessed as increase in caspase 9 mRNA expression at 100 nM after 6 hrs hrs by SYBR green dye-based qRT-PCR analysis relative to control; format: functional
NCI-H23 = test: Antiproliferative activity against human NCI-H23 cells assessed as growth inhibition after 48 hrs by sulforhodamine B assay; format: functional; conditions: NCI-H23, 48 h
SK-MEL-28 = test: Antiproliferative activity against human SK-MEL-28 cells assessed as growth inhibition after 48 hrs by sulforhodamine B assay; format: functional; conditions: SK-MEL-28, 48 h
SF-539 = test: Antiproliferative activity against human SF539 cells assessed as growth inhibition after 48 hrs by sulforhodamine B assay; format: functional; conditions: SF-539, 48 h
IGROV-1 = test: Antiproliferative activity against human IGROV1 cells assessed as growth inhibition after 48 hrs by sulforhodamine B assay; format: functional; conditions: IGROV-1, 48 h
HL-60(TB) = test: Antiproliferative activity against human HL-60(TB) cells assessed as growth inhibition after 48 hrs by sulforhodamine B assay; format: functional; conditions: HL-60, 48 h
RXF 393 = test: Antiproliferative activity against human RXF393 cells assessed as growth inhibition after 48 hrs by sulforhodamine B assay; format: functional; conditions: RXF 393, 48 h
MDA-MB-468 = test: Antiproliferative activity against human MDA-MB-468 cells assessed as growth inhibition after 48 hrs by sulforhodamine B assay; format: functional; conditions: MDA-MB-468, 48 h
[7] = Haemolytic activity in human erythrocytes assessed as induction of hemolysis at 5 mM after 30 mins relative to H202; format: cell-based, Erythrocyte; conditions: read-out: Activity
786-0 = test: Antiproliferative activity against human 786-0 cells assessed as growth inhibition after 48 hrs by sulforhodamine B assay; format: functional; conditions: 786-0, 48 h
HCT-15 = test: Antiproliferative activity against human HCT15 cells assessed as growth inhibition after 48 hrs by sulforhodamine B assay; format: functional; conditions: HCT-15, 48 h
[8] = Antioxidant activity assessed as hydroxyl radical scavenging activity after 1 hr by salicylic acid-based Fenton reaction assay; format: functional
HCT-116 [9] = test: Reduction in CDK1 mRNA expression in human HCT116 cells at 100 nM after 6 hrs hrs by SYBR green dye-based qRT-PCR analysis relative to control; format: functional; conditions: HCT-116, 6 h
HOP-92 = test: Antiproliferative activity against human HOP92 cells assessed as growth inhibition after 48 hrs by sulforhodamine B assay; format: functional; conditions: HOP-92, 48 h

Row | Compound | GI50 (OVCAR-5) | Selectivity Index [1] | inhibition [2] | GI50 (SK-MEL-5) | GI50 (KM12) | fold change (FC) (HCT-116 [3]) | GI50 (SR) | GI50 (MOLT-4) | GI50 (BT-549) | IC50 (WI-38) | Activity (Erythrocyte) | GI50 (MDA-MB-231) | GI50 (CAKI-1) | GI50 (HCC 2998) | GI50 (T47D) | GI50 (M14) | fold change (FC) (HCT-116 [4]) | GI50 (SN12C) | GI50 [5] | LC50 [5] | further results
1 | COc1cc(OC)cc(-c2ccc(-c3ccc(C(=N)N)o3)o2)c1 | 2340 nM | 27 | 31% | 1950 nM | 2450 nM | 0.9 | 1880 nM | 2440 nM | 6910 nM | 81600 nM | Non-Toxic | 2350 nM | 4330 nM | 2050 nM | 2080 nM | 2070 nM | 4.1 | 2380 nM | 3020 nM | 22900 nM | TGI [5]: 8120 nM; GI50 (UACC-257): 2410 nM; GI50 (SNB-19): 3020 nM; GI50 (LOX IMVI): 1790 nM; GI50 (A549): 3780 nM; fold change (FC) (HCT-116 [6]): 1.03; GI50 (NCI-H23): 9250 nM; GI50 (SK-MEL-28): 1820 nM; GI50 (SF-539): 1830 nM; GI50 (IGROV-1): 2970 nM; GI50 (HL-60(TB)): 1900 nM; GI50 (RXF 393): 1930 nM; GI50 (MDA-MB-468): 2410 nM; hemolysis at 0.5 h, 5000 µM [7]: 7.5%; GI50 (786-0): 4150 nM; GI50 (HCT-15): 3180 nM; Activity [8]: Active
2 | N=C(N)c1ccc(-c2ccc(-c3ccc4ccccc4c3)s2)s1 | 1810 nM | 34 | 54.6% | 14700 nM | 1920 nM | 1 | 1050 nM | 1470 nM | 17600 nM | 81300 nM | Non-Toxic | 1850 nM | 3110 nM | 2020 nM | 1950 nM | 2450 nM | 2.59 | 1870 nM | 2390 nM | 30200 nM | TGI [5]: 6020 nM; GI50 (UACC-257): 16100 nM; GI50 (SNB-19): 1950 nM; GI50 (LOX IMVI): 1710 nM; GI50 (A549): 2030 nM; fold change (FC) (HCT-116 [6]): 2.33; GI50 (NCI-H23): 2950 nM; GI50 (SK-MEL-28): 2250 nM; GI50 (SF-539): 1970 nM; GI50 (IGROV-1): 2160 nM; GI50 (HL-60(TB)): 1810 nM; GI50 (RXF 393): 1930 nM; GI50 (MDA-MB-468): 2380 nM; hemolysis at 0.5 h, 5000 µM [7]: 13%; GI50 (786-0): 2140 nM; GI50 (HCT-15): 1690 nM; Activity [8]: Active
3 | N=C(N)c1ccc(-c2ccc(-c3cncc4ccccc34)s2)s1 | 1710 nM | >74.6 | 52.5% | 1740 nM | 1510 nM | 4.67 | 270 nM | 1170 nM | 1510 nM | > 100000 nM | Non-Toxic | 1350 nM | 1600 nM | 1530 nM | 1520 nM | 1620 nM | 3.03 | 1800 nM | 1340 nM | 77600 nM | inhibition at 0.1 µM (HCT-116 [9]): 84%; TGI [5]: 3230 nM; GI50 (UACC-257): 2470 nM; GI50 (SNB-19): 2170 nM; GI50 (LOX IMVI): 1110 nM; GI50 (A549): 1620 nM; fold change (FC) (HCT-116 [6]): 1.27; GI50 (HOP-92): 1370 nM; GI50 (NCI-H23): 1760 nM; GI50 (SK-MEL-28): 1640 nM; GI50 (SF-539): 1730 nM; GI50 (IGROV-1): 1910 nM; GI50 (HL-60(TB)): 1920 nM; GI50 (RXF 393): 1600 nM; GI50 (MDA-MB-468): 1270 nM; hemolysis at 0.5 h, 5000 µM [7]: 4%; GI50 (786-0): 1590 nM; GI50 (HCT-15): 980 nM; Activity [8]: Active
